# Reference: ChEMBL document CHEMBL4334553, “Discovery of Hydroxyamidine Based Inhibitors of IDO1 for Cancer Immunotherapy with Reduced Potential for Glucuronidation” (ACS Med Chem Lett, 2020)
# Activity calls are given as the source filed them. The calls are words filed in the database; no cut-off is given here.
# Assays:
# [1] = biological target: T1, Indoleamine 2,3-dioxygenase 1 (Homo sapiens, UniProt P14902); test: Inhibition of human N-terminal GST-tagged IDO1 expressed in Escherichia coli Rosetta(DE3) pLysS using L-tryptophan as substrate measured after 1 hr by fluorescence assay
# T1 sequence (P14902 whole entry): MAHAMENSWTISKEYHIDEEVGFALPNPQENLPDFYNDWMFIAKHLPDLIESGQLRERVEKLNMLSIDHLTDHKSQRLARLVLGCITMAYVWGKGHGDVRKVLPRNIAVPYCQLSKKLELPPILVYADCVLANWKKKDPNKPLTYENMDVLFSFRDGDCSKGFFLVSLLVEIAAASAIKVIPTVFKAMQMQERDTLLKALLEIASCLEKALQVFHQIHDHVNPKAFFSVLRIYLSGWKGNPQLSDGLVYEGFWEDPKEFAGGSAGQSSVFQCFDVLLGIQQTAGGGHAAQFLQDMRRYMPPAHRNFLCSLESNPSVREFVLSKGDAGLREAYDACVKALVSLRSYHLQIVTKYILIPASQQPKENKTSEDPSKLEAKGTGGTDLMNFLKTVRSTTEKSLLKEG
# [2] = biological target: T1, Indoleamine 2,3-dioxygenase 1; test: Inhibition of IDO1 in interferon-gamma-induced human SKOV3 cells assessed as N-formylkynurenine formation using L-tryptophan as substrate measured after 24 hrs by fluorescence assay
# [3] = biological target: T2, UGT1A9 (Homo sapiens, UniProt O60656); test: Stability assessed as recombinant UGT1A9 (unknown origin) mediated compound glucuronidation by measuring half-life at 1 uM incubated in water bath by shaking at 37 degree C measured upto 60 mins in presence of UDPGA by LC-MS/MS analysis; assay type: ADME
# T2 sequence (O60656 whole entry): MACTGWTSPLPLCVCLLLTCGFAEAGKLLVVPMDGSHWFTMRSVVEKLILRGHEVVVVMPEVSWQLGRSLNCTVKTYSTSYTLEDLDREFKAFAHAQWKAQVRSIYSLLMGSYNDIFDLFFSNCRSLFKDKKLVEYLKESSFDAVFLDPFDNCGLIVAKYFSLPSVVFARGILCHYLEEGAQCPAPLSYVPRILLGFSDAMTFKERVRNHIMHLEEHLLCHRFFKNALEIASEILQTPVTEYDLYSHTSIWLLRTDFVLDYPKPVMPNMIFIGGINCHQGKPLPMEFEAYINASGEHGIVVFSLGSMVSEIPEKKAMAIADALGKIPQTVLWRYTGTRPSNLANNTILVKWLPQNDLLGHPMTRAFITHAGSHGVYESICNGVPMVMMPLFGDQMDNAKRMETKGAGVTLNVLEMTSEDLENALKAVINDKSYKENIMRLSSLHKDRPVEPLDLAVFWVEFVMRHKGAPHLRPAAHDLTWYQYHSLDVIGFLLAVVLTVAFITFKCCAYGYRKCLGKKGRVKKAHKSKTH
# [4] = Half life in human liver microsomes; assay type: ADME, Microsome
# [5] = Half life in mouse liver microsomes; assay type: ADME, Microsome
# [6] = biological target: Tryptophan 2,3-dioxygenase (Homo sapiens, UniProt P48775); test: Inhibition of TDO in human HEK cells; assay type: cell-based
# Chain of Tryptophan 2,3-dioxygenase (P48775 whole entry): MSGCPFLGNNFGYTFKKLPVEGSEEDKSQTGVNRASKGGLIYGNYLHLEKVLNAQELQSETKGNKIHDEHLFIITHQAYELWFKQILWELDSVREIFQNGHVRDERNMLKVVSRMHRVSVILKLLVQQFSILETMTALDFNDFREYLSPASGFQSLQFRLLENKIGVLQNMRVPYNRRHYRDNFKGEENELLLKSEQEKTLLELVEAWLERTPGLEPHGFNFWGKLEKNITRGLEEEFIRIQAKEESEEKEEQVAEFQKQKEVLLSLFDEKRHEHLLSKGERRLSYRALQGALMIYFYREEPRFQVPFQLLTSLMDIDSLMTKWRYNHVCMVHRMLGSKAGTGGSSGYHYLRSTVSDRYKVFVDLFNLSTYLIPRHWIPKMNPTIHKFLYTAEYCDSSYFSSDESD
# [7] = Half life in rat liver microsomes; assay type: ADME, Microsome
# [8] = biological target: T1, Indoleamine 2,3-dioxygenase 1; test: Inhibition IDO1 in LPS/IFN-gamma stimulated human whole blood assessed as reduction in tryptophan/kynurenine level preincubated for 15 mins followed by LPS/IFN-gamma stimulation measured after 20 hrs by LC-MS/MS analysis; assay type: tissue-based
# [9] = Protein binding in human plasma; assay type: ADME, cell-free; conditions: read-out: PPB (converted)
# [10] = Protein binding in mouse plasma; assay type: ADME, cell-free; conditions: read-out: PPB (converted)
# [11] = Protein binding in rat plasma; assay type: ADME, cell-free; conditions: read-out: PPB (converted)
# [12] = biological target: Cytochrome P450 3A4 (Homo sapiens, UniProt P08684); test: Inhibition of CYP3A4 (unknown origin); assay type: ADME
# Chain of Cytochrome P450 3A4 (P08684 whole entry): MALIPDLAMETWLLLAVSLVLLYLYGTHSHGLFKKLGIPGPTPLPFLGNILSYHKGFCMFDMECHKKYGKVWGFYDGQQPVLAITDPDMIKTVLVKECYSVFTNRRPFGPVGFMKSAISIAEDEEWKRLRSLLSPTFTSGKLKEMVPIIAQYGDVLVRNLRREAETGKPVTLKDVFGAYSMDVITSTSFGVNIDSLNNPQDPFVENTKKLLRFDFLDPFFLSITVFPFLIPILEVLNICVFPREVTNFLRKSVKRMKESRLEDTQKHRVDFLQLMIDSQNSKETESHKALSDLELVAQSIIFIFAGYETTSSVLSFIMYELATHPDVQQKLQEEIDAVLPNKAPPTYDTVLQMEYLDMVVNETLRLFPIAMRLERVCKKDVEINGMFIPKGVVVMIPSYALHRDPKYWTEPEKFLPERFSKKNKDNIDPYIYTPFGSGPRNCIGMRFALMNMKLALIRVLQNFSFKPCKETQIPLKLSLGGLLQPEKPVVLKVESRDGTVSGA
# [13] = biological target: Cytochrome P450 2D6 (Homo sapiens, UniProt P10635); test: Inhibition of CYP2D6 (unknown origin); assay type: ADME
# Chain of Cytochrome P450 2D6 (P10635 whole entry): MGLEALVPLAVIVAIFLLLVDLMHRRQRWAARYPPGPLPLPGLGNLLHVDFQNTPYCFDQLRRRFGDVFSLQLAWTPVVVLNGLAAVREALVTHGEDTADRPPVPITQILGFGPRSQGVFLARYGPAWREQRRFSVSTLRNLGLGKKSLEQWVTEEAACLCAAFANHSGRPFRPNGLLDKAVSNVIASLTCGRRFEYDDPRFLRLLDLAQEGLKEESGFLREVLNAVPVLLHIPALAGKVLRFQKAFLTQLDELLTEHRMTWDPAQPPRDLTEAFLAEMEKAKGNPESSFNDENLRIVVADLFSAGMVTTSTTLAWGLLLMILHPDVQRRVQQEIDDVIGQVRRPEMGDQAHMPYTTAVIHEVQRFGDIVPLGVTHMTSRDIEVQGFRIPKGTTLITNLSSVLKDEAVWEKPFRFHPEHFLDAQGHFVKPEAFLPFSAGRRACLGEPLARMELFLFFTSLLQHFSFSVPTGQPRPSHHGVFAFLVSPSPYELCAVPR
# [14] = biological target: Cytochrome P450 2C9 (Homo sapiens, UniProt P11712); test: Inhibition of CYP2C9 (unknown origin); assay type: ADME
# Chain of Cytochrome P450 2C9 (P11712 whole entry): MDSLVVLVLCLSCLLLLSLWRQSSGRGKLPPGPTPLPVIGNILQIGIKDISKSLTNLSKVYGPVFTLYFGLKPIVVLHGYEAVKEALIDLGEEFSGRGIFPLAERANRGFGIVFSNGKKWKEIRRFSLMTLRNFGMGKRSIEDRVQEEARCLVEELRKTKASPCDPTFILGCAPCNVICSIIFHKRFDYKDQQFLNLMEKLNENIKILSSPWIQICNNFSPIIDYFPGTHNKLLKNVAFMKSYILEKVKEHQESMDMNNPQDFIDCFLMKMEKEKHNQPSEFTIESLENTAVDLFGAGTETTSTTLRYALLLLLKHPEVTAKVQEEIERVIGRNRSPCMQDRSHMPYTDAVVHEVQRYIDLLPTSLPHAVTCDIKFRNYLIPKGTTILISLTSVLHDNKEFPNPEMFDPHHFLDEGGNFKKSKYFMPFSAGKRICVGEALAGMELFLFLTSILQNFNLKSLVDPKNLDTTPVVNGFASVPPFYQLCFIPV
# [15] = biological target: Cytochrome P450 2C19 (Homo sapiens, UniProt P33261); test: Inhibition of CYP2C19 (unknown origin); assay type: ADME
# Chain of Cytochrome P450 2C19 (P33261 whole entry): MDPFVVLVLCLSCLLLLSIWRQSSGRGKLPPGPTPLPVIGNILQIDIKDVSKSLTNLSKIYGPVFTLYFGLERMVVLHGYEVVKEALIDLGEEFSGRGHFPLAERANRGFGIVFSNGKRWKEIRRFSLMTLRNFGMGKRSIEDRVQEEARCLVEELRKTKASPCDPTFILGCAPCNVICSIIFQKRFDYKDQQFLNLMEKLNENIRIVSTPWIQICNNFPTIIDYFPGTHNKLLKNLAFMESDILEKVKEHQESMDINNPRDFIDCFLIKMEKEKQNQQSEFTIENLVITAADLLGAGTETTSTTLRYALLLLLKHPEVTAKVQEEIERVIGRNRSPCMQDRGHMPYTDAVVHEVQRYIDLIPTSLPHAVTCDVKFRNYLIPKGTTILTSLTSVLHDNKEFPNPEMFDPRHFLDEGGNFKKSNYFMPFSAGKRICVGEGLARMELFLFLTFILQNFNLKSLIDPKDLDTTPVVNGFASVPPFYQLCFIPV
# [16] = Cmax in mouse at 10 mg/kg, po by capillary micro-sampling analysis; assay type: ADME, organism-based; set-up: dose 10 mg/kg, route oral; conditions: in vivo
# [17] = AUC (0 to 24 hrs) in mouse at 10 mg/kg, po by capillary micro-sampling analysis; assay type: ADME, organism-based; set-up: dose 10 mg/kg, time < 24 hr, route oral; conditions: in vivo
# [18] = Half life in mouse at 10 mg/kg, po by capillary micro-sampling analysis; assay type: ADME, organism-based; conditions: in vivo
# [19] = Cmax in rat at 5 mg/kg, po administered as single dose by capillary micro-sampling analysis; assay type: ADME, organism-based; set-up: dose 5 mg/kg, route oral; conditions: in vivo
# [20] = AUC (0 to 24 hrs) in rat at 5 mg/kg, po administered as single dose by capillary micro-sampling analysis; assay type: ADME, organism-based; set-up: dose 5 mg/kg, time < 24 hr, route oral; conditions: in vivo
# [21] = Clearance in rat at 1 mg/kg, iv administered as single dose by capillary micro-sampling analysis; assay type: ADME, organism-based; conditions: in vivo
# [22] = Volume of distribution in rat at 1 mg/kg, iv administered as single dose by capillary micro-sampling analysis; assay type: ADME, organism-based; conditions: in vivo
# [23] = Half-life in rat at 1 mg/kg, iv administered as single dose by capillary micro-sampling analysis; assay type: ADME, organism-based; conditions: in vivo
# [24] = Oral bioavailability in rat at 5 mg/kg administered as single dose by capillary micro-sampling analysis; assay type: ADME, organism-based; conditions: in vivo
# [25] = AUC in humanized PXB-mouse assessed as ratio of glucuronide to parent compound at 10 mg/kg, po administered as single dose; assay type: ADME, organism-based; conditions: in vivo
# [26] = Cmax in humanized PXB-mouse assessed as ratio of glucuronide to parent compound at 10 mg/kg, po administered as single dose; assay type: ADME, organism-based; conditions: in vivo
# [27] = test system: CT26; test: (§1) Antitumor activity against mouse CT26 cells implanted in immunocompetent BALB/c mouse assessed as reduction in tumour growth at 100 mg/kg, po administered twice daily over 15 days starting from day 10 post implantation measured thrice per week by digital caliper method; assay type: functional, organism-based
# [28] = test system: CT26; test: as §1, with “Synergistic antitumor” for “Antitumor”, “implantation in presence of CTLA-4 antibody at 100 ug, ip administered at day 3,6,9” for “implantation”, “method and monitored for 45 days” for “method”; assay type: functional, organism-based
# [29] = test system: CT26; test: Synergistic antitumor activity against mouse CT26 cells implanted in immunocompetent BALB/c mouse assessed as survival at […] at 100 mg/kg, po administered twice daily over 15 days starting from day 10 post implantation in presence of CTLA-4 antibody at 100 ug, ip administered at day 3,6,9 measured thrice per week and monitored for 45 days; assay type: functional, organism-based
# [30] = test system: Mus musculus; test: In vivo inhibition of IDO1 in C57BL/6J mouse assessed as reduction in LPS-induced kynurenine level in plasma at 100 mg/kg, po administered via gavage measured after 24 hrs by LC-MS/MS analysis; assay type: functional, organism-based
compound,measurement,setting,value
NS(=O)(=O)NCCOc1nonc1/C(=N/O)Nc1ccc(F)c(Br)c1,IC50,[1],150 nM
same,IC50,[2],12 nM
same,half-life at 1 µM,[3],0.0483 h
NS(=O)(=O)CC(=O)NCCSc1nonc1/C(=N/O)Nc1cccc(C(F)(F)F)c1,IC50,[1],140 nM
same,IC50,[2],12 nM
same,half-life,[4],1.95 h
same,half-life,[5],0.44 h
same,half-life at 1 µM,[3],> 3 h
CC(C)(O)CC(=O)NCCSc1nonc1/C(=N/O)Nc1ccc(F)c(C(F)F)c1,IC50,[1],140 nM
same,IC50,[2],8.4 nM
same,half-life,[4],0.937 h
same,half-life,[5],0.175 h
same,half-life at 1 µM,[3],> 3 h
CS(=O)(=O)NCCSc1nonc1/C(=N/O)Nc1ccc(F)c(Br)c1,IC50,[1],270 nM
same,IC50,[2],9.3 nM
same,half-life,[4],1.73 h
same,half-life,[5],0.29 h
same,half-life at 1 µM,[3],0.357 h
N#CCC(=O)NCCSc1nonc1/C(=N/O)Nc1ccc(F)c(C(F)F)c1,IC50,[1],180 nM
same,IC50,[2],6.5 nM
same,half-life,[4],2.77 h
same,half-life,[5],0.278 h
same,half-life at 1 µM,[3],1.73 h
C[C@@H](CSc1nonc1/C(=N/O)Nc1ccc(F)c(Br)c1)NC(=O)CS(N)(=O)=O,IC50,[1],93 nM
same,IC50,[2],19 nM
same,half-life,[4],1.57 h
same,half-life,[5],0.398 h
same,half-life at 1 µM,[3],> 3 h
N#Cc1cc(N/C(=N\O)c2nonc2SCCNC(=O)CS(N)(=O)=O)ccc1F,IC50,[1],150 nM
same,IC50,[2],39 nM
same,half-life,[4],> 3 h
same,half-life,[5],2.38 h
same,half-life at 1 µM,[3],> 3 h
COc1nonc1/C(=N/O)Nc1ccc(F)c(Br)c1,IC50,[1],230 nM
same,IC50,[2],39 nM
C[C@H](CSc1nonc1/C(=N/O)Nc1ccc(F)c(Br)c1)NC(=O)CS(N)(=O)=O,IC50,[1],110 nM
same,IC50,[2],12 nM
same,half-life,[4],0.77 h
same,half-life,[5],0.537 h
same,half-life at 1 µM,[3],1.33 h
NS(=O)(=O)CC(=O)NCCSc1nonc1/C(=N/O)Nc1cccc(Cl)c1,IC50,[1],21 nM
same,IC50,[2],10 nM
same,half-life,[4],> 3 h
same,half-life,[5],1.26 h
same,half-life at 1 µM,[3],0.9 h
same,IC50,[6],> 10000 nM
same,half-life,[7],0.562 h
same,IC50,[8],220 nM
same,fraction unbound,[9],0.046
same,fraction unbound,[10],0.026
same,fraction unbound,[11],0.043
same,IC50,[12],> 10000 nM
same,IC50,[13],> 10000 nM
same,IC50,[14],> 10000 nM
same,IC50,[15],> 10000 nM
same,Cmax,[16],5 µM
same,AUC(0-t) at 24 h,[17],11.9 µM·h
same,half-life,[18],2.6 h
same,Cmax,[19],5.6 µM
same,AUC(0-t) at 24 h,[20],26 µM·h
same,clearance,[21],3.65 mL/min/kg
same,Vd,[22],0.33 L/kg
same,half-life,[23],1.5 h
same,bioavailability,[24],28%
same,Ratio,[25],> 2
same,Ratio,[26],> 3
same,Activity,[27],Active
same,Activity,[28],Active
same,Activity,[29],Active
same,inhibition,[30],Active
CSc1nonc1/C(=N/O)Nc1ccc(F)c(Br)c1,IC50,[1],560 nM
same,IC50,[2],15 nM
NS(=O)(=O)NCC(=O)NCCSc1nonc1/C(=N/O)Nc1ccc(F)c(C(F)F)c1,IC50,[1],93 nM
same,IC50,[2],21 nM
same,half-life,[4],> 3 h
same,half-life,[5],2.75 h
same,half-life at 1 µM,[3],> 3 h
same,IC50,[6],> 10000 nM
same,IC50,[8],320 nM
same,IC50,[12],> 10000 nM
same,IC50,[13],> 10000 nM
same,IC50,[14],> 10000 nM
same,IC50,[15],> 10000 nM
same,Cmax,[16],3.3 µM
same,AUC(0-t) at 24 h,[17],30 µM·h
same,half-life,[18],3.6 h
NS(=O)(=O)CC(=O)NCCSc1nonc1/C(=N/O)Nc1cccc(C(F)F)c1,IC50,[1],130 nM
same,IC50,[2],17 nM
same,half-life,[4],> 3 h
same,half-life,[5],1.5 h
same,half-life at 1 µM,[3],> 3 h
